Source: patent publication US8148531B2 (Chroma Therapeutics Ltd., priority 2005, dated 2012)

What was measured:
HUT cell line = test: Cell inhibition assay (SRB cell viability), HUT; assay type: cell-based; settings: IC50 range class, 72 h, read-out: Inhibitor Activity vs HUT cell line
In short: (§1)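 Log-phase cells seeded at 1000 cells/well, grown 24 h, then exposed to compounds (20 uM final) for 72 h. Viability read by sulphorhodamine B staining as % inhibition versus DMSO; IC50 from eight-point sigmoidal variable-slope fit.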

Aurora-B = Aurora-B (Homo sapiens, UniProt Q96GD4); test: Aurora-B enzyme assay (identical protocol as Aurora-A); assay type: biochemical; settings: IC50 range class; read-out: Inhibitor Activity vs Aurora-B
Protocol: (§2) The ability of compounds to inhibit Aurora-A activity was measured using a simple microplate assay for Aurora-A activity, also suitable for high-throughput screening. In brief, γ-^33P-ATP and Aurora-A were incubated in a myelin basic protein (MBP)-coated Flashplate® to generate a scintillation signal. The plates were formatted to contain the inhibitor, controls, positive control (staurosporin) and blanks. After incubation at 37° C. for 1 hour and a subsequent wash procedure, the plates were read on a TopCount-NXT™.
(§3) IC50 values were determined by non-linear regression analysis, after fitting the data point results to the equation for sigmoidal dose response with variable slope (% activity against log concentration of compound), using Graphpad Prism software.
The Aurora-B enzyme assay follows the identical protocol as Aurora-A.

Aurora-A = target: T1, Aurora-A (Homo sapiens, UniProt O14965); test: Aurora-A enzyme assay (MBP-coated Flashplate, γ-33P-ATP); assay type: biochemical; settings: IC50 range class; read-out: Inhibitor Activity vs Aurora-A
T1 sequence (O14965 1-403): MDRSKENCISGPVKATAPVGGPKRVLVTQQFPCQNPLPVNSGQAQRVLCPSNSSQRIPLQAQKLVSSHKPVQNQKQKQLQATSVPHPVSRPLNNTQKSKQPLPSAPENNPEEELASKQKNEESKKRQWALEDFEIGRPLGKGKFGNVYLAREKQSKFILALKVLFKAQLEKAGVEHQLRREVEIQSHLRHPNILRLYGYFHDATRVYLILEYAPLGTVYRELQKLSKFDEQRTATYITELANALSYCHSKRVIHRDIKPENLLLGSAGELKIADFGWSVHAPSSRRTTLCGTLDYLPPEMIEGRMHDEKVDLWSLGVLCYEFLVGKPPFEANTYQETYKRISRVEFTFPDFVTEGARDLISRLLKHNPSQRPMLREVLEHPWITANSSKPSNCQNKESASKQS
Protocol: as §2
The 384-well basic Flashplate® and the γ-^33P-ATP were obtained from PerkinElmer Life Sciences, Boston, Mass.
as §3
Full experimental procedure for this assay can be found within the following reference: Sun, C Journal of Biomolecular Screening 9(5), 2004, 391.

HCT 116 cell line = test: Cell inhibition assay (SRB cell viability), HCT 116; assay type: cell-based; settings: Homo sapiens, IC50 range class, 72 h, read-out: Inhibitor Activity vs HCT 116 cell line
In short: as §1

U937 cell line = test: Cell inhibition assay (SRB cell viability), U937; assay type: cell-based; settings: Homo sapiens, U-937, IC50 range class, 72 h, read-out: Inhibitor Activity vs U937 cell line
In short: as §1

Aurora-B, sequence (Q96GD4 whole entry): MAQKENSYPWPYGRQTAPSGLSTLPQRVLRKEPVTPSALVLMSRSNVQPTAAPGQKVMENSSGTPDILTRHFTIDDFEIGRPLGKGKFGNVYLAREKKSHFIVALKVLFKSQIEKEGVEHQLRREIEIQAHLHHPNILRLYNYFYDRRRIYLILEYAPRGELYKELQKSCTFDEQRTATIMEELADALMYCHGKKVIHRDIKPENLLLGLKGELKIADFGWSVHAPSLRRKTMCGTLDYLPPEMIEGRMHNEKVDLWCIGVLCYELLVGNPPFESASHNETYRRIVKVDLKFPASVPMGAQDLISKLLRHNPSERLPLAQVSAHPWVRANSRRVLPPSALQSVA

IC50 (Aurora-B) | IC50 (Aurora-A) | IC50 (HCT 116 cell line) | IC50 (U937 cell line) | SMILES | IC50 (HUT cell line)
2000 to 5000 nM | 2000 to 5000 nM | < 1000 nM | < 1000 nM | COc1cc2c(Oc3ccc(NC(=O)c4ccccc4)cc3)ccnc2cc1OCC[C@H](N)C(=O)OC1CCCC1 [Example 2, (S)-2-Amino-4-[4-(4-benzoylamino-phenoxy)-6-methoxy-quinolin-7-yloxy]-butyric acid cyclopentyl ester] | < 1000 nM
> 5000 nM | 2000 to 5000 nM | 1000 to 5000 nM | 1000 to 5000 nM | COc1cc2c(Nc3ccc(NC(=O)c4ccccc4)cc3)ccnc2cc1OCC[C@H](N)C(=O)OC1CCCC1 [Example 15, (S)-2-Amino-4-[4-(4-benzoylamino-phenylamino)-6-methoxy-quinolin-7-yloxy]-butyric acid cyclopentyl ester] | 1000 to 5000 nM
> 5000 nM | < 2000 nM | < 1000 nM | < 1000 nM | COc1cc2c(Sc3ccc(NC(=O)c4ccccc4)cc3)ccnc2cc1OCC[C@H](N)C(=O)OC1CCCC1 [Example 18, (S)-2-Amino-4-[4-(4-benzoylamino-phenylsulfanyl)-6-methoxy-quinolin-7-yloxy]-butyric acid cyclopentyl ester] | < 1000 nM
< 2000 nM | > 5000 nM | – | – | COc1cc2c(Oc3ccc(CC(=O)Nc4ccc(F)cc4F)cc3)ccnc2cc1OCC[C@H](N)C(=O)O [Example 89, (S)-2-Amino-4-(4-{4-[(2,4-difluoro-phenylcarbamoyl)-methyl]-phenoxy}-6-methoxy-quinolin-7-yloxy)-butyric acid] | –
< 2000 nM | 2000 to 5000 nM | – | – | COc1ccc(NC(=O)Cc2ccc(Oc3ccnc4cc(OCC[C@H](N)C(=O)O)c(OC)cc34)cc2)cc1 [Example 91, (S)-2-Amino-4-(6-methoxy-4-{4-[(4-methoxy-phenylcarbamoyl)-methyl]-phenoxy}-quinolin-7-yloxy)-butyric acid] | –
< 2000 nM | < 2000 nM | – | – | COc1cc2c(Oc3ccc(NC(=O)Nc4ccc(C(F)(F)F)cc4)cc3)ccnc2cc1OCC[C@H](N)C(=O)O [Example 94, (S)-2-Amino-4-(6-methoxy-4-{4-[3-(4-trifluoromethyl-phenyl)-ureido]-phenoxy}-quinolin-7-yloxy)-butyric acid] | –
< 2000 nM | < 2000 nM | – | – | COc1cc2c(Oc3ccc(NC(=O)Nc4ccccc4)cc3)ccnc2cc1OCC[C@H](N)C(=O)O [Example 96, (S)-2-Amino-4-{6-methoxy-4-[4-(3-phenyl-ureido)-phenoxy]-quinolin-7-yloxy}-butyric acid] | –
< 2000 nM | 2000 to 5000 nM | – | – | COc1cc2c(Oc3ccc(NC(=O)c4ccccc4)cc3)ccnc2cc1OCC[C@@H](N)C(=O)O [Example 100, (R)-2-Amino-4-[4-(4-benzoylamino-phenoxy)-6-methoxy-quinolin-7-yloxy]-butyric acid] | –
< 2000 nM | < 2000 nM | – | – | COc1cc2c(Oc3ccc(NC(=O)Nc4ccccc4)cc3)ccnc2cc1OCC[C@@H](N)C(=O)O [Example 102, (R)-2-Amino-4-{6-methoxy-4-[4-(3-phenyl-ureido)-phenoxy]-quinolin-7-yloxy}-butyric acid] | –
< 2000 nM | < 2000 nM | – | – | COc1cc2c(Oc3ccc(NC(=O)Nc4ccc(C(F)(F)F)cc4)cc3)ccnc2cc1OCC[C@@H](N)C(=O)O [Example 105, (R)-2-Amino-4-(6-methoxy-4-{4-[3-(4-trifluoromethyl-phenyl)-ureido]-phenoxy}-quinolin-7-yloxy)-butyric acid] | –
< 2000 nM | < 2000 nM | – | – | COc1cc2c(Oc3ccc(NC(=O)c4ccccc4)cc3)ccnc2cc1OCCC[C@H](N)C(=O)O [Example 110, (S)-2-Amino-5-[4-(4-benzoylamino-phenoxy)-6-methoxy-quinolin-7-yloxy]-pentanoic acid] | –
< 2000 nM | < 2000 nM | – | – | COc1cc2c(Oc3ccc(NC(=O)Nc4ccccc4)cc3)ccnc2cc1OCCC[C@H](N)C(=O)O [Example 112, (S)-2-Amino-5-{6-methoxy-4-[4-(3-phenyl-ureido)-phenoxy]-quinolin-7-yloxy}-pentanoic acid] | –
< 2000 nM | < 2000 nM | – | – | COc1cc2c(Oc3ccc(NC(=O)Nc4ccc(C(F)(F)F)cc4)cc3)ccnc2cc1OCCC[C@H](N)C(=O)O [Example 114, (S)-2-Amino-5-(6-methoxy-4-{4-[3-(4-trifluoromethyl-phenyl)-ureido]-phenoxy}-quinolin-7-yloxy)-pentanoic acid] | –
< 2000 nM | < 2000 nM | – | – | COc1cc2c(Oc3ccc(NC(=O)c4ccccc4)cc3)ccnc2cc1OCCC[C@@H](N)C(=O)O [Example 116, (R)-2-Amino-5-[4-(4-benzoylamino-phenoxy)-6-methoxy-quinolin-7-yloxy]-pentanoic acid] | –
< 2000 nM | < 2000 nM | – | – | COc1cc2c(Oc3ccc(NC(=O)Nc4ccccc4)cc3)ccnc2cc1OCCC[C@@H](N)C(=O)O [Example 118, (R)-2-Amino-5-{6-methoxy-4-[4-(3-phenyl-ureido)-phenoxy]-quinolin-7-yloxy}-pentanoic acid] | –
< 2000 nM | < 2000 nM | – | – | COc1cc2c(Oc3ccc(NC(=O)Nc4ccc(C(F)(F)F)cc4)cc3)ccnc2cc1OCCC[C@@H](N)C(=O)O [Example 120, (R)-2-Amino-5-(6-methoxy-4-{4-[3-(4-trifluoromethyl-phenyl)-ureido]-phenoxy}-quinolin-7-yloxy)-pentanoic acid] | –
< 2000 nM | < 2000 nM | – | – | COc1cc2c(Sc3ccc(NC(=O)Nc4ccc(C(F)(F)F)cc4)cc3)ccnc2cc1OCCC[C@@H](N)C(=O)O [Example 122, (R)-2-Amino-5-(6-methoxy-4-{4-[3-(4-trifluoromethyl-phenyl)-ureido]-phenylsulfanyl}-quinolin-7-yloxy)-pentanoic acid] | –
< 2000 nM | < 2000 nM | – | – | COc1cc2c(Oc3ccc(NC(=O)Nc4ccc(C(F)(F)F)cc4)cc3F)ccnc2cc1OCCC[C@@H](N)C(=O)O [Example 124, (R)-2-Amino-5-(4-{2-fluoro-4-[3-(4-trifluoromethyl-phenyl)-ureido]-phenoxy}-6-methoxy-quinolin-7-yloxy)-pentanoic acid] | –
< 2000 nM | < 2000 nM | – | – | COc1cc2c(Oc3ccc(NC(=O)Nc4ccc(C(F)(F)F)cc4)cc3F)ccnc2cc1OCC[C@H](N)C(=O)O [Example 126, (S)-2-Amino-4-(4-{2-fluoro-4-[3-(4-trifluoromethyl-phenyl)-ureido]-phenoxy}-6-methoxy-quinolin-7-yloxy)-butyric acid] | –
< 2000 nM | < 2000 nM | – | – | COc1cc2c(Oc3ccc(NC(=O)c4ccccc4)cc3F)ccnc2cc1OCC[C@H](N)C(=O)O [Example 129, (S)-2-Amino-4-[4-(4-benzoylamino-2-fluoro-phenoxy)-6-methoxy-quinolin-7-yloxy]-butyric acid] | –
2000 to 5000 nM | > 5000 nM | – | – | COc1cc2c(Oc3ccc(NC(=O)c4ccccc4)c(F)c3)ccnc2cc1OCC[C@H](N)C(=O)O [Example 131, (S)-2-Amino-4-[4-(4-benzoylamino-3-fluoro-phenoxy)-6-methoxy-quinolin-7-yloxy]-butyric acid] | –
2000 to 5000 nM | 2000 to 5000 nM | – | – | COc1cc2c(Oc3ccc(NC(=O)c4ccccc4)cc3OC)ccnc2cc1OCC[C@H](N)C(=O)O [Example 133, (S)-2-Amino-4-[4-(4-benzoylamino-2-methoxy-phenoxy)-6-methoxy-quinolin-7-yloxy]-butyric acid] | –
2000 to 5000 nM | 2000 to 5000 nM | – | – | COc1cc2c(Oc3ccc(NCc4ccccc4)cc3)ccnc2cc1OCC[C@H](N)C(=O)O [Example 139, (S)-2-Amino-4-[4-(4-benzylamino-phenoxy)-6-methoxy-quinolin-7-yloxy]-butyric acid] | –
< 2000 nM | 2000 to 5000 nM | – | – | COc1cc2c(Oc3ccc(CNC(=O)c4ccccc4)cc3)ccnc2cc1OCC[C@H](N)C(=O)O [Example 142, (S)-2-Amino-4-{4-[4-(benzoylamino-methyl)-phenoxy]-6-methoxy-quinolin-7-yloxy}-butyric acid] | –

SMILES | IC50 (Aurora-B) | IC50 (Aurora-A) | IC50 (HCT 116 cell line) | IC50 (U937 cell line) | IC50 (HUT cell line)
COc1cc2c(Oc3ccc(NC(=O)c4ccccc4)cc3)ccnc2cc1OCC[C@H](NC(=O)OC(C)(C)C)C(=O)OC1CCCC1 [Example 1, (S)-4-[4-(4-Benzoylamino-phenoxy)-6-methoxy-quinolin-7-yloxy]-2-tert-butoxycarbonylamino-butyric acid cyclopentyl ester] | > 5000 nM | 2000 to 5000 nM | < 1000 nM | < 1000 nM | 1000 to 5000 nM
